Tests used:
[1] = Metabolic stability test in liver S9; assay type: in vitro ADME; conditions: pH 7.4, human liver S9 2 mg protein/mL, LC/MS; for remaining at 10 min: unchanged form after 10 minutes at 37°C, read-out: Remaining rate in human liver S9 (%/10min); for remaining at 1 h: unchanged form after 60 minutes at 37°C, read-out: Remaining rate in human liver S9 (%/60min)
Experimental: Human liver S9 (final concentration: 2 mg protein/mL), was suspended in 100 mM potassium phosphate buffer (pH 7.4, containing β-nicotinamide adenine dinucleotide phosphate: 1.3 mM, D-glucose-6- phosphate: 3.3 mM, magnesium chloride: 3.3 mM, glucose-6-phosphate dehydrogenase:0.4 U/mL). The suspension was mixed with a solution of a sample dissolved in DMSO. The solution was incubated at 37°C for 0, 10 and 60 minutes, and an acetonitrile containing formic acid (final concentration: 0.1%) was added thereto. The solutions were centrifuged, and the concentration of the sample (unchanged form) in the supernatant was determined by high performance liquid chromatography/mass spectrometry (LC/MS). Based on the data obtained, remaining rate (%) was calculated according to the following equation. Remaining rate(%) = amount of sample 0,10, or 60 minutes after [formula] incubation/amount of sample at zero time after incubation × 100 [formula]
(§1) With respect to the compounds obtained in Working Examples according to the present invention (Compounds 1-1 to 1-115, 2-1, 3-1, 3-2, and 4-1 to 4-4), the results of the remaining rate in human liver S9 and plasma are shown in Tables 28 to 32.

[2] = Metabolic stability test in plasma; assay type: in vitro ADME, human; conditions: LC/MS; for remaining at 10 min: unchanged form after 10 minutes at 37°C in human plasma, read-out: Remaining rate in human plasma (%/10min); for remaining at 1 h: unchanged form after 60 minutes at 37°C in human plasma, read-out: Remaining rate in human plasma (%/60min)
Experimental: A sample dissolved in DMSO was added to plasma of human or animal species (mouse and hamster). The solutions were incubated at 37°C for 0, 10 and 60 minutes, and acetonitrile containing formic acid (final concentration: 0.1%) was added thereto. The solutions were centrifuged, and the concentration of the sample (unchanged form) in the supernatant was determined by high performance liquid chromatography/mass spectrometry (LC/MS). Based on the data obtained, the remaining rate (%) was calculated according to the following equation. Remaining rate(%) = amount of sample 0,10, or 60 minutes after incubation/amount of sample at zero time after incubation × 100 [formula]
as §1

[3] = Stability test in buffer (pH 7.4); assay type: physicochemical; conditions: phosphate buffer/acetonitrile 7:3, 100 mM potassium phosphate buffer (pH 7.4) and acetonitrile 7:3 (v/v), LC/MS; for remaining at 10 min: 10 minutes at 37°C, read-out: Buf. remaining rate (%/10min); for remaining at 1 h: 60 minutes at 37°C, read-out: Buf. remaining rate (%/60min)
Experimental: In the tables, Buf. remaining rate was determined by stability test in buffer (pH 7.4) as described below. A sample dissolved in DMSO was mixed with a mixed solution of 100 mM potassium phosphate buffer and acetonitrile in the ratio of 7:3 (v/v). The mixture was incubated at 37°C for 0, 10, and 60 minutes, and acetonitrile containing formic acid (final concentration: 0.1%) was added thereto. The solution was centrifuged, and the concentration of the sample (unchanged form) in the supernatant was determined by high performance liquid chromatography/mass spectrometry (LC/MS). Based on the data obtained, Buf. remaining rate (%) was calculated according to the following equation. Buf.remaining rate(%) = amount of sample 0,10, or 60 minutes after incubation/amount of sample at zero time after incubation × 100 [formula]

Row | Compound | remaining at 10 min [1] [%] | remaining at 1 h [1] [%] | remaining at 10 min [2] [%] | remaining at 1 h [2] [%] | remaining at 10 min [3] [%] | remaining at 1 h [3] [%]
1 | COC(=O)c1ccc(OC(=O)CCCc2ccc(NC(=O)c3ccc(C)nc3-c3ccc(C(F)(F)F)cc3)c(C(=O)N(C)C)c2)cn1 [Compound 1-32, 5-[4-(3-dimethylcarbamoyl-4-{[6-methyl-2-(4-trifluoromethylphenyl)pyridine-3-carbonyl]amino}phenyl)butyryloxy]pyridine-2-carboxylic acid methyl ester] | 0 | 0 | 0 | 0 | 100 | 97
2 | COC(=O)c1ccc(OC(=O)CCCc2ccc(NC(=O)c3ccccc3-c3ccc(C(F)(F)F)cc3)c(C(=O)N(C)C)c2)c(C(=O)OC)c1 [Compound 1-33, 4-(4-{3-dimethylcarbamoyl-4-[(4'-trifluoromethylbiphenyl-2-carbonyl)amino]phenyl}butyryloxy)isophthalic acid dimethyl ester] | 0 | 0 | 0 | 0 | 98 | 102
3 | COC(=O)c1cc(C)c(OC(=O)CCCc2ccc(NC(=O)c3ccccc3-c3ccc(C(F)(F)F)cc3)c(C(=O)N(C)C)c2)c(Cl)c1 [Compound 1-34, 3-chloro-4-(4-{3-dimethylcarbamoyl-4-[(4'-trifluoromethylbiphenyl-2-carbonyl)amino]phenyl}butyryloxy)-5-methylbenzoic acid methyl ester] | 16 | 4 | 52 | 0 | 98 | 103
4 | COC(=O)c1cc(C)c(OC(=O)CCCc2ccc(NC(=O)c3ccc(C)nc3-c3ccc(C(F)(F)F)cc3)c(C(=O)N(C)C)c2)c(Cl)c1 [Compound 1-35, 3-chloro-4-[4-(3-dimethylcarbamoyl-4-{[6-methyl-2-(4-trifluoromethylphenyl)pyridine-3-carbonyl]amino}phenyl)butyryloxy]-5-methylbenzoic acid methyl ester] | 5 | 0 | 43 | 0 | 100 | 105
5 | COC(=O)c1cc(Cl)c(OC(=O)CCCc2ccc(NC(=O)c3ccc(C)nc3-c3ccc(C(F)(F)F)cc3)c(C(=O)N(C)C)c2)c(OC)c1 [Compound 1-36, 3-chloro-4-[4-(3-dimethylcarbamoyl-4-{[6-methyl-2-(4-trifluoromethylphenyl)pyridine-3-carbonyl]amino}phenyl)butyryloxy]-5-methoxybenzoic acid methyl ester] | 3 | 0 | 0 | 0 | 100 | 103
6 | COc1cc(C(=O)OC(C)C)cc(Cl)c1OC(=O)CCCc1ccc(NC(=O)c2ccc(C)nc2-c2ccc(C(F)(F)F)cc2)c(C(=O)N(C)C)c1 [Compound 1-37, 3-chloro-4-[4-(3-dimethylcarbamoyl-4-{[6-methyl-2-(4-trifluoromethylphenyl)pyridine-3-carbonyl]amino}phenyl)butyryloxy]-5-methoxybenzoic acid isopropyl ester] | 37 | 11 | 0 | 0 | 99 | 99
7 | COc1cc(C(=O)OC(C)C)cc(F)c1OC(=O)CCCc1ccc(NC(=O)c2ccc(C)nc2-c2ccc(C(F)(F)F)cc2)c(C(=O)N(C)C)c1 [Compound 1-38, 4-[4-(3-dimethylcarbamoyl-4-{[6-methyl-2-(4-trifluoromethylphenyl)pyridine-3-carbonyl]amino}phenyl)butyryloxy]-3-fluoro-5-methoxybenzoic acid isopropyl ester] | 11 | 2 | 0 | 0 | 101 | 102
8 | COC(=O)c1cc(OC)c(OC(=O)CCCc2ccc(NC(=O)c3ccc(C)nc3-c3ccc(C(F)(F)F)cc3)c(C(=O)N(C)C)c2)c(OC)c1 [Compound 1-39, 4-[4-(3-dimethylcarbamoyl-4-{[6-methyl-2-(4-trifluoromethylphenyl)pyridine-3-carbonyl]amino}phenyl)butyryloxy]-3,5-dimethoxybenzoic acid methyl ester] | 5 | 2 | 0 | 0 | 98 | 104
9 | CCOc1cc(C(=O)OC)cc(Cl)c1OC(=O)CCCc1ccc(NC(=O)c2ccc(C)nc2-c2ccc(C(F)(F)F)cc2)c(C(=O)N(C)C)c1 [Compound 1-40, 3-chloro-4-[4-(3-dimethylcarbamoyl-4-{[6-methyl-2-(4-trifluoromethylphenyl)pyridine-3-carbonyl]amino}phenyl)butyryloxy]-5-ethoxybenzoic acid methyl ester] | 5 | 0 | 0 | 0 | 100 | 102
10 | COC(=O)c1cc(C)c(OC(=O)CCCc2ccc(NC(=O)c3ccc(C)nc3-c3ccc(C(F)(F)F)cc3)c(C(=O)N(C)C)c2)c(F)c1 [Compound 1-41, 4-[4-(3-dimethylcarbamoyl-4-{[6-methyl-2-(4-trifluoromethylphenyl)pyridine-3-carbonyl]amino}phenyl)butyryloxy]-3-fluoro-5-methylbenzoic acid methyl ester] | 4 | 0 | 37 | 0 | 103 | 106
11 | CCc1cc(C(=O)OC)cc(F)c1OC(=O)CCCc1ccc(NC(=O)c2ccc(C)nc2-c2ccc(C(F)(F)F)cc2)c(C(=O)N(C)C)c1 [Compound 1-42, 4-[4-(3-dimethylcarbamoyl-4-{[6-methyl-2-(4-trifluoromethylphenyl)pyridine-3-carbonyl]amino}phenyl)butyryloxy]-3-ethyl-5-fluorobenzoic acid methyl ester] | 5 | 0 | 52 | 0 | 103 | 103
12 | CCOC(=O)c1cc(OC)c(OC(=O)CCCc2ccc(NC(=O)c3ccc(C)nc3-c3ccc(C(F)(F)F)cc3)c(C(=O)N(C)C)c2)c(OC)c1 [Compound 1-43, 4-[4-(3-dimethylcarbamoyl-4-{[6-methyl-2-(4-trifluoromethylphenyl)pyridine-3-carbonyl]amino}phenyl)butyryloxy]-3,5-dimethoxybenzoic acid ethyl ester] | 4 | 2 | 13 | 0 | 101 | 103
13 | COc1cc(C(=O)OC(C)C)cc(OC)c1OC(=O)CCCc1ccc(NC(=O)c2ccc(C)nc2-c2ccc(C(F)(F)F)cc2)c(C(=O)N(C)C)c1 [Compound 1-44, 4-[4-(3-dimethylcarbamoyl-4-{[6-methyl-2-(4-trifluoromethylphenyl)pyridine-3-carbonyl]amino}phenyl)butyryloxy]-3,5-dimethoxybenzoic acid isopropyl ester] | 12 | 4 | 13 | 0 | 99 | 100

From EP1803452A1, “ESTER DERIVATIVE AND PHARMACEUTICAL USE THEREOF” (Japan Tobacco, Inc., priority 2004, dated 2006)
